target: Hepatocyte growth factor receptor (Homo sapiens, UniProt P08581); experiment: Inhibition of purified c-Met using poly(glu,tyr) as substrate after 60 mins by ELISA
Sequence (P08581 whole entry): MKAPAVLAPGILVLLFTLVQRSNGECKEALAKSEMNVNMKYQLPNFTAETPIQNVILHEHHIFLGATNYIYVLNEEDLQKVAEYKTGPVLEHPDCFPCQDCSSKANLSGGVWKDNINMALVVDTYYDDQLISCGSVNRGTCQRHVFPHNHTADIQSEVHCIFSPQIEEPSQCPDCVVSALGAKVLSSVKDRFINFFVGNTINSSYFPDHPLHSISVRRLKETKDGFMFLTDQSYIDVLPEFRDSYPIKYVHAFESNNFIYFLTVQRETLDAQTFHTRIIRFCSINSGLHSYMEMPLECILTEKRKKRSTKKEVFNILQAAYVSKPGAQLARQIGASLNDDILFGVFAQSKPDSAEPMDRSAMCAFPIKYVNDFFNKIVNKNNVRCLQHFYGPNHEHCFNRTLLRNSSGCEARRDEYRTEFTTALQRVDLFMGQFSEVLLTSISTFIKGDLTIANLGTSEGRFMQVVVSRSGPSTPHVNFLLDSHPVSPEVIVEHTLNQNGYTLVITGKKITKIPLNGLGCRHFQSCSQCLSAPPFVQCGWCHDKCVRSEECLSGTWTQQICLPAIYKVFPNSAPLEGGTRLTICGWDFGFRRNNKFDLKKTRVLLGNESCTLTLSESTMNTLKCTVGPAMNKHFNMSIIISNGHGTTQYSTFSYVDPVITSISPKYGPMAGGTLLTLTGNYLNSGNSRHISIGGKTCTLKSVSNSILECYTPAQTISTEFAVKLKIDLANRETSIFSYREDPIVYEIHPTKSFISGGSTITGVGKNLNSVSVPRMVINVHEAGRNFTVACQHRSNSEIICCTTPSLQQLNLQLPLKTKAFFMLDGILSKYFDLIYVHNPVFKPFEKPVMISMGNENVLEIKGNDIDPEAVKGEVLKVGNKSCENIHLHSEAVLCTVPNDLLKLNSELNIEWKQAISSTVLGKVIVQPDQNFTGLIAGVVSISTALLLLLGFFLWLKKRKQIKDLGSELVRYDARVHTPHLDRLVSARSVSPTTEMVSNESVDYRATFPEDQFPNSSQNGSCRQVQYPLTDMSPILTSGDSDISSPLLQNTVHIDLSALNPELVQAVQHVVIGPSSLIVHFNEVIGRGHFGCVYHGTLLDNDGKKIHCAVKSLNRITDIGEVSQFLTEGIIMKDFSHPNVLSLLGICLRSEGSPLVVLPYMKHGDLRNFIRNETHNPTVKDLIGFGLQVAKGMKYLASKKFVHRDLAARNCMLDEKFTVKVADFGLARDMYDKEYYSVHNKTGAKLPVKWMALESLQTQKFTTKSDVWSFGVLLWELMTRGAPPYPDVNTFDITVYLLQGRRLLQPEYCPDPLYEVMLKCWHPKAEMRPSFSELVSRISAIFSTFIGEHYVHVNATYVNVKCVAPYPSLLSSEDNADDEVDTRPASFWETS

SMILES | IC50
Cc1cccc(C(=O)Nc2ccc(C(=O)N/N=C3\C(=O)Nc4ccccc43)cc2)c1 | 1.3 µM
O=C(N/N=C1\C(=O)N(CN2CCOCC2)c2ccc(Br)cc21)c1ccccc1 | 3.5 µM
O=C1Nc2ccccc2/C1=N/NC(=O)c1cc2ccccc2cc1O | 4.3 µM
O=C(CCCCCC(=O)N/N=C/c1cc2c(cc1[N+](=O)[O-])OCO2)N/N=C/c1cc2c(cc1[N+](=O)[O-])OCO2 | 0.78 µM
Cc1ccc(NC(=O)CN2C(=O)/C(=N\NC(=O)c3ccc(N)cc3)c3ccccc32)cc1 | 15.8 µM
CN1C(=O)/C(=N\NC(=O)c2ccc([N+](=O)[O-])cc2)c2ccccc21 | 12.3 µM
O=[N+]([O-])c1cc(-c2ccc(/C=N\n3cnnc3N/N=C/c3ccc(-c4ccc(Cl)c([N+](=O)[O-])c4)o3)o2)ccc1Cl | 3.3 µM
COc1ccc(C(=O)N/N=C2\C(=O)N(CN3CCOCC3)c3ccc(Br)cc32)cc1 | 2.2 µM
COc1ccc(C(=O)COC(=O)c2ccc3c(c2)C(=O)N(c2ccc(C(C)=O)cc2)C3=O)cc1 | 3.7 µM
CN1C(=O)/C(=N\NC(=O)c2cccc(C(=O)N/N=C3/C(=O)N(C)c4ccccc43)c2)c2ccccc21 | 10.3 µM
O=C1Nc2ccccc2C1=NNC(=O)c1ccc([N+](=O)[O-])cc1 | 28.3 µM

— ChEMBL document CHEMBL1777704, “Identification and synthesis of N'-(2-oxoindolin-3-ylidene)hydrazide derivatives against c-Met kinase” (Bioorg Med Chem Lett, 2011)
